Experimental data from patent publication US20240368127A1, “HSD17B13 INHIBITORS AND USES THEREOF” (FL2022-001, Inc., priority 2021, published 2024).

Molecular target: T1, Recombinant human HSD17B13 enzyme (Homo sapiens, UniProt Q7Z5P4)
T1 sequence (Q7Z5P4 20-300): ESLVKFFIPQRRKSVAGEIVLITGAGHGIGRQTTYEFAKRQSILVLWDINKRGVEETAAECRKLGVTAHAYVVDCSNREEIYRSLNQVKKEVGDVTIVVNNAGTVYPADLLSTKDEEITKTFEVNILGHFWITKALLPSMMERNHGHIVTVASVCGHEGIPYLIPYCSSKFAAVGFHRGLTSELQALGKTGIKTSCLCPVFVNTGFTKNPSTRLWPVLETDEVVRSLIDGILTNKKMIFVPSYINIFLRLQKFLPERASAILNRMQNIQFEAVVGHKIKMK
Test: HSD17b13 NAD(P)H-Glo biochemical assay
Conditions: 50 μM estradiol, 1 mM NAD+, 37° C. for 3 hours; read-out: HSD17β13 IC50
How it was run: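 Enzyme preincubated with inhibitor 20 min at RT in 20 mM Tris pH7.4, 0.002% Tween-20, 0.02% BSA, then reacted 3 h at 37° C with 50 μM estradiol and 1 mM NAD+ (final). NADH formation read by NAD(P)H-Glo luminescence after 1 h at RT.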

For `Cc1nn(-c2cc(C(F)(F)F)c(F)c(O)c2F)c2cnc(N3CCN(S(C)(=O)=O)C[C@@H]3Cc3ccccc3)cc12` [Compound 2.03, (S)-3-(5-(2-Benzyl-4-(methylsulfonyl)piperazin-1-yl)-3-methyl-1H-pyrazolo[3,4-c]pyridin-1-yl)-2,6-difluoro-5-(trifluoromethyl)phenol], the IC50 was 100 to 1000 nM.

With `Cn1nc(-c2cccc(O)c2)c2cnc(N3CCN(S(C)(=O)=O)C[C@H]3Cc3ccccc3)nc21` [Compound 11.11, (R)-3-(6-(2-Benzyl-4-(methylsulfonyl)piperazin-1-yl)-1-methyl-1H-pyrazolo[3,4-d]pyrimidin-3-yl)phenol] the IC50 was 1000 to 30000 nM.

`Cc1nn(-c2cc(C(F)(F)F)c(F)c(O)c2F)c2cnc(N3CCN(S(C)(=O)=O)C[C@H]3Cc3ccccc3)cc12` [Compound 2.02, (R)-3-(5-(2-Benzyl-4-(methylsulfonyl)piperazin-1-yl)-3-methyl-1H-pyrazolo[3,4-c]pyridin-1-yl)-2,6-difluoro-5-(trifluoromethyl)phenol] showed an IC50 of at most 100 nM.

`Oc1c(F)cc2nnn(-c3ccc(N4CC[C@@H](Cc5ccccc5)C4)cc3)c2c1F` [Compound 1.06, (R)-1-(4-(3-Benzylpyrrolidin-1-yl)phenyl)-5,7-difluoro-1H-benzo[d][1,2,3]triazol-6-ol] gave an IC50 of at most 100 nM.

`Cn1nc(-c2cc(C(F)(F)F)c(F)c(O)c2F)c2cnc(N3CCC3Cc3ccccc3)nc21` (stereo not drawn) [Compound 5.19, 3-(6-(2-Benzylazetidin-1-yl)-1-methyl-1H-pyrazolo[3,4-d]pyrimidin-3-yl)-2,6-difluoro-5-(trifluoromethyl)phenol] showed an IC50 of at most 100 nM.

`Cn1nc(-c2cc(C(F)(F)F)c(F)c(O)c2F)c2cnc(N3CCOCC3Cc3cccnc3)nc21` (stereo not drawn) [Compound 15.07, 2,6-Difluoro-3-(1-methyl-6-(3-(pyridin-3-ylmethyl)morpholino)-1H-pyrazolo[3,4-d]pyrimidin-3-yl)-5-(trifluoromethyl)phenol] showed an IC50 of at most 100 nM.

With `Cn1nc(-c2cc(C(F)(F)F)c(F)c(O)c2F)c2cnc(N3CCCCC3Cn3cncn3)nc21` (stereo not drawn) [Compound 5.34, 3-(6-(2-((1H-1,2,4-Triazol-1-yl)methyl)piperidin-1-yl)-1-methyl-1H-pyrazolo[3,4-d]pyrimidin-3-yl)-2,6-difluoro-5-(trifluoromethyl)phenol] the IC50 was 100 to 1000 nM.

`Cn1nc(-c2cc(C(F)(F)F)c(F)c(O)c2F)c2cnc(N3CCN(S(C)(=O)=O)C(CC4CCC4)C3)nc21` (stereo not drawn) [Compound 5.37, 3-(6-(3-(Cyclobutylmethyl)-4-(methylsulfonyl)piperazin-1-yl)-1-methyl-1H-pyrazolo[3,4-d]pyrimidin-3-yl)-2,6-difluoro-5-(trifluoromethyl)phenol] gave an IC50 of at most 100 nM.

`Cn1nc(-c2cc(C(F)(F)F)c(F)c(O)c2F)c2cnc(N3CCN(S(C)(=O)=O)CC3CC3CCCCC3)nc21` (stereo not drawn) [Compound 15, 3-(6-(2-(Cyclohexylmethyl)-4-(methylsulfonyl)piperazin-1-yl)-1-methyl-1H-pyrazolo[3,4-d]pyrimidin-3-yl)-2,6-difluoro-5-(trifluoromethyl)phenol] was tested, and the IC50 was at most 100 nM.

`Cc1nn(-c2ncc(Cl)c(O)c2F)c2cnc(N3CCN(S(C)(=O)=O)C[C@H]3Cc3ccccc3)cc12` [Compound 2.17, (R)-2-(5-(2-Benzyl-4-(methylsulfonyl)piperazin-1-yl)-3-methyl-1H-pyrazolo[3,4-c]pyridin-1-yl)-5-chloro-3-fluoropyridin-4-ol] gave an IC50 of 100 to 1000 nM.

Work on `CS(=O)(=O)N1CCN(c2ccc(-n3nnc4cc(F)c(O)c(F)c43)cc2)C[C@H]1Cc1ccccc1` [Compound 1.03, (R)-1-(4-(3-Benzyl-4-(methylsulfonyl)piperazin-1-yl)phenyl)-5,7-difluoro-1H-benzo[d][1,2,3]triazol-6-ol] yielded an IC50 of at most 100 nM.

`CCn1nc(-c2cc(C(F)(F)F)c(F)c(O)c2F)c2cnc(N3CCOC[C@H]3Cc3ccccc3)nc21` [Compound 15.12, (R)-3-(6-(3-Benzylmorpholino)-1-ethyl-1H-pyrazolo[3,4-d]pyrimidin-3-yl)-2,6-difluoro-5-(trifluoromethyl)phenol] gave an IC50 of at most 100 nM.

With `Cn1nc(-c2cc(C(F)(F)F)c(F)c(O)c2F)c2cnc(N3CCOCC3CC3CCCCC3)nc21` (stereo not drawn) [Compound 15.03, 3-(6-(3-(Cyclohexylmethyl)morpholino)-1-methyl-1H-pyrazolo[3,4-d]pyrimidin-3-yl)-2,6-difluoro-5-(trifluoromethyl)phenol] the IC50 was at most 100 nM.

`Cn1nc(-c2cc(C(F)(F)F)c(F)c(O)c2F)c2cnc(N3CCN(S(C)(=O)=O)[C@H](Cc4ccccc4)C3)nc21` [Compound 5.15, (R)-3-(6-(3-Benzyl-4-(methylsulfonyl)piperazin-1-yl)-1-methyl-1H-pyrazolo[3,4-d]pyrimidin-3-yl)-2,6-difluoro-5-(trifluoromethyl)phenol] gave an IC50 of at most 100 nM.

For `Cc1nn(-c2cc(C(F)(F)F)c(F)c(O)c2F)c2cc(F)c(N3CCN(S(C)(=O)=O)C[C@H]3Cc3ccccc3)nc12` [Compound 2.33, (R)-3-(5-(2-Benzyl-4-(methylsulfonyl)piperazin-1-yl)-6-fluoro-3-methyl-1H-pyrazolo[4,3-b]pyridin-1-yl)-2,6-difluoro-5-(trifluoromethyl)phenol], the IC50 was at most 100 nM.

For `Cn1nc(-c2cc(C(F)(F)F)c(F)c(O)c2F)c2cnc(N3CC(=O)NC[C@H]3Cc3ccccc3)nc21` [Compound 15.09, (R)-5-Benzyl-4-(3-(2,4-difluoro-3-hydroxy-5-(trifluoromethyl)phenyl)-1-methyl-1H-pyrazolo[3,4-d]pyrimidin-6-yl)piperazin-2-one], the IC50 was at most 100 nM.

`Cc1c(C(F)(F)F)cc(-c2nn(C)c3nc(N4CCN(S(C)(=O)=O)C[C@H]4Cc4ccccc4)ncc23)c(F)c1O` [Compound 11.19, (R)-3-(6-(2-Benzyl-4-(methylsulfonyl)piperazin-1-yl)-1-methyl-1H-pyrazolo[3,4-d]pyrimidin-3-yl)-2-fluoro-6-methyl-5-(trifluoromethyl)phenol] showed an IC50 of at most 100 nM.

`Cn1nc(-c2cc(C(F)(F)F)c(F)c(O)c2F)c2cnc(N3CCN(S(C)(=O)=O)CC3CC3CCC3)nc21` (stereo not drawn) [Compound 11.27, 3-(6-(2-(Cyclobutylmethyl)-4-(methylsulfonyl)piperazin-1-yl)-1-methyl-1H-pyrazolo[3,4-d]pyrimidin-3-yl)-2,6-difluoro-5-(trifluoromethyl)phenol] showed an IC50 of at most 100 nM.

For `Cc1cc(-c2nn(C)c3nc(N4CCN(S(C)(=O)=O)C[C@H]4Cc4ccccc4)ncc23)c(F)c(O)c1F` [Compound 11.08, (R)-3-(6-(2-Benzyl-4-(methylsulfonyl)piperazin-1-yl)-1-methyl-1H-pyrazolo[3,4-d]pyrimidin-3-yl)-2,6-difluoro-5-methylphenol], the IC50 was at most 100 nM.

Compound `Cn1nc(-c2cc(C(F)(F)F)c(F)c(O)c2F)c2cnc(N3CCOC[C@H]3C(C)(C)O)nc21` [Compound 15.13, (S)-2,6-Difluoro-3-(6-(3-(2-hydroxypropan-2-yl)morpholino)-1-methyl-1H-pyrazolo[3,4-d]pyrimidin-3-yl)-5-(trifluoromethyl)phenol] has an IC50 of at most 100 nM.

Work on `Cc1ccc([C@@H](O)[C@H]2CN(c3ncc4c(-c5cc(C(F)(F)F)c(F)c(O)c5F)nn(C)c4n3)CCO2)cc1` [Compound 13, 2,6-Difluoro-3-(6-((R)-2-((R)-hydroxy(p-tolyl)methyl)morpholino)-1-methyl-1H-pyrazolo[3,4-d]pyrimidin-3-yl)-5-(trifluoromethyl)phenol] yielded an IC50 of at most 100 nM.

Work on `Cc1nn(-c2cc(C(F)(F)F)c(F)c(O)c2F)c2cnc(N3CCOCC3Cc3ccccc3)cc12` (stereo not drawn) [Compound 2.01, 3-(5-(3-Benzylmorpholino)-3-methyl-1H-pyrazolo[3,4-c]pyridin-1-yl)-2,6-difluoro-5-(trifluoromethyl)phenol] yielded an IC50 of at most 100 nM.

Compound `Cn1nc(-c2cc(C(F)(F)F)c(F)c(O)c2F)c2cnc(N3CCOC[C@H]3Cc3cccc(F)c3)nc21` [Compound 5.24, (R)-2,6-Difluoro-3-(6-(3-(3-fluorobenzyl)morpholino)-1-methyl-1H-pyrazolo[3,4-d]pyrimidin-3-yl)-5-(trifluoromethyl)phenol] has an IC50 of at most 100 nM.

For `CS(=O)(=O)N1CCN(c2ncc3c(cnn3-c3cc(O)c(F)c(C(F)(F)F)c3)n2)[C@H](Cc2ccccc2)C1` [Compound 2.36, (R)-5-(5-(2-Benzyl-4-(methylsulfonyl)piperazin-1-yl)-1H-pyrazolo[4,3-d]pyrimidin-1-yl)-2-fluoro-3-(trifluoromethyl)phenol], the IC50 was at most 100 nM.

`CS(=O)(=O)N1CCN(c2cc3c(Cl)nn(-c4cc(C(F)(F)F)c(F)c(O)c4F)c3cn2)[C@H](Cc2ccccc2)C1` [Compound 2.20, (R)-3-(5-(2-Benzyl-4-(methylsulfonyl)piperazin-1-yl)-3-chloro-1H-pyrazolo[3,4-c]pyridin-1-yl)-2,6-difluoro-5-(trifluoromethyl)phenol] gave an IC50 of at most 100 nM.

`Cc1nn(-c2cc(C(F)(F)F)c(Cl)c(O)c2F)c2cnc(N3CCN(S(C)(=O)=O)C[C@H]3Cc3ccccc3)cc12` [Compound 2.11, (R)-3-(5-(2-Benzyl-4-(methylsulfonyl)piperazin-1-yl)-3-methyl-1H-pyrazolo[3,4-c]pyridin-1-yl)-6-chloro-2-fluoro-5-(trifluoromethyl)phenol] was tested, and the IC50 was at most 100 nM.

`Cn1nc(-c2cc(C(F)(F)F)c(F)c(O)c2F)c2cnc(N3CCCC[C@H]3Cc3ccccc3)nc21` [Compound 5.16, (S)-3-(6-(2-Benzylpiperidin-1-yl)-1-methyl-1H-pyrazolo[3,4-d]pyrimidin-3-yl)-2,6-difluoro-5-(trifluoromethyl)phenol] gave an IC50 of at most 100 nM.
